According to patent US8192962B2, “Processes for detecting toxic substances” (Daikin Industries, Ltd., priority 2001, dated 2012):

System: Unknown protein yeast genes
Assay: DNA chip mRNA expression in yeast, unknown protein yeast genes (Table 1)
Format: cell-based, Saccharomyces cerevisiae S288C
Procedure, shortened: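 Ratios compare mRNA levels in stressed and control S. cerevisiae. Each toxicant was applied for two hours to log-phase cultures at 25° C. at a sub-lethal, growth-inhibiting level; fluorescent cDNA (Cy3- or Cy5-dUTP) was hybridized to a genome-wide yeast chip for over 12 h at 65° C.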

`C=CC=O` [(14), acrolein] was tested, and the “The level of expressed mRNA in the presence of chemical substance/The level of expressed mRNA in the absence of chemical substance” value (yeast gene YAL053W, incubated two hours with chemical substance) was 0.7, the “The level of expressed mRNA in the presence of chemical substance/The level of expressed mRNA in the absence of chemical substance” value (yeast gene YBL048W) was 2.0 and the “The level of expressed mRNA in the presence of chemical substance/The level of expressed mRNA in the absence of chemical substance” value (yeast gene YBL107C) was 2.5. The “The level of expressed mRNA in the presence of chemical substance/The level of expressed mRNA in the absence of chemical substance” value (yeast gene YDL072C, incubated two hours with chemical substance) was 1.8, the “The level of expressed mRNA in the presence of chemical substance/The level of expressed mRNA in the absence of chemical substance” value (yeast gene YDL204W, incubated two hours with chemical substance) was 2.4 and the “The level of expressed mRNA in the presence of chemical substance/The level of expressed mRNA in the absence of chemical substance” value (yeast gene YDL222C, incubated two hours with chemical substance) was 1.3. The “The level of expressed mRNA in the presence of chemical substance/The level of expressed mRNA in the absence of chemical substance” value (yeast gene YDR330W, incubated two hours with chemical substance) was 1.1, the “The level of expressed mRNA in the presence of chemical substance/The level of expressed mRNA in the absence of chemical substance” value (yeast gene YDR411C, incubated two hours with chemical substance) was 0.8 and the “The level of expressed mRNA in the presence of chemical substance/The level of expressed mRNA in the absence of chemical substance” value (yeast gene YDR511W, incubated two hours with chemical substance) was 2.2. For the same molecule, the “The level of expressed mRNA in the presence of chemical substance/The level of expressed mRNA in the absence of chemical substance” value (yeast gene YDR545W, incubated two hours with chemical substance) was 0.7, the “The level of expressed mRNA in the presence of chemical substance/The level of expressed mRNA in the absence of chemical substance” value (yeast gene YEL001C, incubated two hours with chemical substance) was 1.3 and the “The level of expressed mRNA in the presence of chemical substance/The level of expressed mRNA in the absence of chemical substance” value (yeast gene YER004W, incubated two hours with chemical substance) was 1.8. For the same molecule, the “The level of expressed mRNA in the presence of chemical substance/The level of expressed mRNA in the absence of chemical substance” value (yeast gene YER035W, incubated two hours with chemical substance) was 1.0, the “The level of expressed mRNA in the presence of chemical substance/The level of expressed mRNA in the absence of chemical substance” value (yeast gene YER079W, incubated two hours with chemical substance) was 1.6 and the “The level of expressed mRNA in the presence of chemical substance/The level of expressed mRNA in the absence of chemical substance” value (yeast gene YER106W, incubated two hours with chemical substance) was 1.5. The “The level of expressed mRNA in the presence of chemical substance/The level of expressed mRNA in the absence of chemical substance” value (yeast gene YER158C, incubated two hours with chemical substance) was 0.9, the “The level of expressed mRNA in the presence of chemical substance/The level of expressed mRNA in the absence of chemical substance” value (yeast gene YER163C, incubated two hours with chemical substance) was 1.9 and the “The level of expressed mRNA in the presence of chemical substance/The level of expressed mRNA in the absence of chemical substance” value (yeast gene YER175C, incubated two hours with chemical substance) was 1.1. The “The level of expressed mRNA in the presence of chemical substance/The level of expressed mRNA in the absence of chemical substance” value (yeast gene YFL006W, incubated two hours with chemical substance) was 1.7, the “The level of expressed mRNA in the presence of chemical substance/The level of expressed mRNA in the absence of chemical substance” value (yeast gene YFL010C, incubated two hours with chemical substance) was 1.4 and the “The level of expressed mRNA in the presence of chemical substance/The level of expressed mRNA in the absence of chemical substance” value (yeast gene YFL024C) was 3.3. The “The level of expressed mRNA in the presence of chemical substance/The level of expressed mRNA in the absence of chemical substance” value (yeast gene YFL032W, incubated two hours with chemical substance) was 0.6, the “The level of expressed mRNA in the presence of chemical substance/The level of expressed mRNA in the absence of chemical substance” value (yeast gene YGL037C, incubated two hours with chemical substance) was 1.0 and the “The level of expressed mRNA in the presence of chemical substance/The level of expressed mRNA in the absence of chemical substance” value (yeast gene YGL047W, incubated two hours with chemical substance) was 2.3. The “The level of expressed mRNA in the presence of chemical substance/The level of expressed mRNA in the absence of chemical substance” value (yeast gene YGL053W, incubated two hours with chemical substance) was 1.1, the “The level of expressed mRNA in the presence of chemical substance/The level of expressed mRNA in the absence of chemical substance” value (yeast gene YGL121C) was 5.8 and the “The level of expressed mRNA in the presence of chemical substance/The level of expressed mRNA in the absence of chemical substance” value (yeast gene YGL199C, incubated two hours with chemical substance) was 0.8. The “The level of expressed mRNA in the presence of chemical substance/The level of expressed mRNA in the absence of chemical substance” value (yeast gene YGR101W, incubated two hours with chemical substance) was 0.9, the “The level of expressed mRNA in the presence of chemical substance/The level of expressed mRNA in the absence of chemical substance” value (yeast gene YGR110W) was 2.8 and the “The level of expressed mRNA in the presence of chemical substance/The level of expressed mRNA in the absence of chemical substance” value (yeast gene YGR130C, incubated two hours with chemical substance) was 0.9. The “The level of expressed mRNA in the presence of chemical substance/The level of expressed mRNA in the absence of chemical substance” value (yeast gene YGR154C, incubated two hours with chemical substance) was 2.2, the “The level of expressed mRNA in the presence of chemical substance/The level of expressed mRNA in the absence of chemical substance” value (yeast gene YGR221C, incubated two hours with chemical substance) was 1.4 and the “The level of expressed mRNA in the presence of chemical substance/The level of expressed mRNA in the absence of chemical substance” value (yeast gene YHR138C, incubated two hours with chemical substance) was 3.4. For the same molecule, the “The level of expressed mRNA in the presence of chemical substance/The level of expressed mRNA in the absence of chemical substance” value (yeast gene YHR199C, incubated two hours with chemical substance) was 2.0, the “The level of expressed mRNA in the presence of chemical substance/The level of expressed mRNA in the absence of chemical substance” value (yeast gene YIL023C, incubated two hours with chemical substance) was 0.7 and the “The level of expressed mRNA in the presence of chemical substance/The level of expressed mRNA in the absence of chemical substance” value (yeast gene YIL041W, incubated two hours with chemical substance) was 1.3. The “The level of expressed mRNA in the presence of chemical substance/The level of expressed mRNA in the absence of chemical substance” value (yeast gene YIL087C, incubated two hours with chemical substance) was 1.3, the “The level of expressed mRNA in the presence of chemical substance/The level of expressed mRNA in the absence of chemical substance” value (yeast gene YJL057C, incubated two hours with chemical substance) was 1.6 and the “The level of expressed mRNA in the presence of chemical substance/The level of expressed mRNA in the absence of chemical substance” value (yeast gene YJL066C, incubated two hours with chemical substance) was 1.0. For the same molecule, the “The level of expressed mRNA in the presence of chemical substance/The level of expressed mRNA in the absence of chemical substance” value (yeast gene YJL082W, incubated two hours with chemical substance) was 0.5, the “The level of expressed mRNA in the presence of chemical substance/The level of expressed mRNA in the absence of chemical substance” value (yeast gene YJL151C, incubated two hours with chemical substance) was 1.3 and the “The level of expressed mRNA in the presence of chemical substance/The level of expressed mRNA in the absence of chemical substance” value (yeast gene YJL152W, incubated two hours with chemical substance) was 1.4. For the same molecule, the “The level of expressed mRNA in the presence of chemical substance/The level of expressed mRNA in the absence of chemical substance” value (yeast gene YJL161W, incubated two hours with chemical substance) was 2.2, the “The level of expressed mRNA in the presence of chemical substance/The level of expressed mRNA in the absence of chemical substance” value (yeast gene YJL171C, incubated two hours with chemical substance) was 1.0 and the “The level of expressed mRNA in the presence of chemical substance/The level of expressed mRNA in the absence of chemical substance” value (yeast gene YJR008W, incubated two hours with chemical substance) was 1.2. The “The level of expressed mRNA in the presence of chemical substance/The level of expressed mRNA in the absence of chemical substance” value (yeast gene YJR054W, incubated two hours with chemical substance) was 1.2, the “The level of expressed mRNA in the presence of chemical substance/The level of expressed mRNA in the absence of chemical substance” value (yeast gene YKL071W) was 21.9 and the “The level of expressed mRNA in the presence of chemical substance/The level of expressed mRNA in the absence of chemical substance” value (yeast gene YKL086W, incubated two hours with chemical substance) was 2.9. The “The level of expressed mRNA in the presence of chemical substance/The level of expressed mRNA in the absence of chemical substance” value (yeast gene YKL107W) was 3.4, the “The level of expressed mRNA in the presence of chemical substance/The level of expressed mRNA in the absence of chemical substance” value (yeast gene YKL151C, incubated two hours with chemical substance) was 1.3 and the “The level of expressed mRNA in the presence of chemical substance/The level of expressed mRNA in the absence of chemical substance” value (yeast gene YKL153W, incubated two hours with chemical substance) was 1.1.
